Assay results taken from patent US20110059850A1, “PHYTOTOXIC HALOGENATED DERIVATIVES OF BENZOXAZINONES” (UNIVERSIDAD DE CÁDIZ, priority 2006, published 2011).

Tests used:
[1] = system: Lolium rigidum L. (ryegrass), common biotype and biotype multiresistant to herbicides SLR31; assay: phytotoxicity bioassay in Petri dishes, L. rigidum biotypes; assay type: in vivo; settings: common biotype versus multiresistant biotype SLR31
Method: (§1) The phytotoxicity bioassays for the compounds object of the invention are performed by means of the protocol of phytotoxicity bioassays in Petri dishes developed by the Grupo de Alelopatía de Cádiz (Cádiz Allelopathy Group) (see, for example: Macías, F. A.; Castellano, D.; Molinillo, J. M. G.; J. Agric. Food Chem. 2000, 48, 6, 2512-2521).
(§2) This assay attempts to imitate the natural conditions of the action of the products to be assayed on seeds of selected plant species, therefore the products are supplied in the form of aqueous solution in a Petri dish in which a certain number of seeds of each receiving species is introduced. The concentration range used allows observing the relationship between the phytotoxic activity of the product and its concentration. The dilutions assayed were 10^−3 M, 5·10^−4 M, 10^−4 M, 5·10^−5 M, 10^−5 M, 5·10^−6 M, 10^−6 M, 5·10^−7, 10^−7 and 5·10^−8. These solutions are buffered at pH=6 using to that end a 10 mM solution of 2-[N-morpholino]-ethanesulfonic acid (MES) the pH of which is adjusted to the desired value by means of adding a 1M solution of NaOH. The blank of this experiment is distilled and deionized water also buffered with MES but in which there is no product dissolved. […]

[2] = system: Lepidium sativum L. (watercress); assay: phytotoxicity bioassay in Petri dishes, radicle length; assay type: in vivo; settings: sigmoid type dose-response model, pH 6, 25° C., dark
Method: as §1, §2

Row | Compound | most affected L. rigidum biotype [1] | IC50 [2] [nM]
1 | O=C1COc2ccc(F)cc2N1O [Compound II, 6-fluoro-4-hydroxy-(2H)-1,4-benzoxazin-3(4H)-one] | the multiresistant biotype was the most affected | –
2 | O=C1COc2ccc(Cl)cc2N1O [VII, 6-chloro-4-hydroxy-(2H)-1,4-benzoxazin-3(4H)-one] | the opposite trend | ~58
